Measured values from PMC4448982, “LP-925219 maximizes urinary glucose excretion in mice by inhibiting both renal SGLT1 and SGLT2” (Pharmacology Research & Perspectives, 2015).

Assays:
[1] = biological target: T1, rat SGLT2 (Rattus norvegicus, UniProt P53792); test: 14C-AMG uptake assay, cells expressing rat SGLT2; format: cell-based; details: mean ± SD
T1 construct: expressed in transfected cells; host or cells: HEK293 (per abstract)
T1 sequence (P53792 1-670): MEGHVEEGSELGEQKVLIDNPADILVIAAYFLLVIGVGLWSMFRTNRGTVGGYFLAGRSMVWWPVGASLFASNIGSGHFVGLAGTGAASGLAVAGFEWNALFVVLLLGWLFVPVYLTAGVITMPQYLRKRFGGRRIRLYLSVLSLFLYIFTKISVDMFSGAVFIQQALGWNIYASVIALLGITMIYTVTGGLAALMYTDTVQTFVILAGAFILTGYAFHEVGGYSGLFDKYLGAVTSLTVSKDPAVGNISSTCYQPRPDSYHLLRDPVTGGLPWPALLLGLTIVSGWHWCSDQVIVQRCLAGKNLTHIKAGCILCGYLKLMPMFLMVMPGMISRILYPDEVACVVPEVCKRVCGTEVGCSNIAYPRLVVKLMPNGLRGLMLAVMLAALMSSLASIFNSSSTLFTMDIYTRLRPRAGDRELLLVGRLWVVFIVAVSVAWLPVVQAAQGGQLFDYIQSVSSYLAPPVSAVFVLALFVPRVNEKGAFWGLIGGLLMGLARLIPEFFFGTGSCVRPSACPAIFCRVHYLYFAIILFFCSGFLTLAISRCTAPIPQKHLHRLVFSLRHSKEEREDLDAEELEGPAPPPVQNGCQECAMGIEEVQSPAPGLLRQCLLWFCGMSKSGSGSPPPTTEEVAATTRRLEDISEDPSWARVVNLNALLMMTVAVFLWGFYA
Description: Methods for generating cell lines expressing mouse, rat, and dog SGLT1 and SGLT2 are published (Powell et al. [2013b], [2014]). Full-length coding sequence of human SGLT1 (NP_000334) and human SGLT2 (NP_003032.1) with an HA-tag at the N-terminus were cloned into the mammalian expression vector pIRESpuro2 (Clontech, Mountain View, CA). HEK293 cells (ATCC, Manassas, VA) were transfected with the pIRESpuro2 vector containing human SGLT1 or SGLT2 and bulk stable cell lines were selected in the presence of 0.5 μg/mL of puromycin.
Cell lines expressing SGLT1 or SGLT2 were plated into poly-D-lysine-coated 384-well plates, and culture overnight in cell growth medium. Cells were washed, and then incubated in uptake buffer ([…], […] KCl, […] CaCl2, […] MgCl2, […] HEPES/Tris, 1 mg/mL of bovine serum albumin, pH7.4) containing [^14C]α-methylglucopyranoside (^14C-AMG), a nonmetabolizable glucose analog specific for sodium-dependent glucose transporters (Wright and Turk [2004]). The inhibition of SGLT1 or SGLT2 was determined by measuring SGLT1/2-mediated ^14C-AMG uptake in the presence of increasing compound concentrations of LP-925219. […] Standard sigmoidal dose–response model curves were fitted, and the IC50 value was computed as the LP-925219 concentration that inhibited the ^14C-AMG uptake by 50% between baseline and maximum uptake.

[2] = biological target: T2, renal SGLT1 and SGLT2 (Mus musculus, UniProt Q8C3K6); test: Metabolic cage study, 24-h urinary glucose excretion; format: in vivo; details: SGLT2 KO mice
T2 construct: from tissue; host or cells: kidney of living WT, SGLT1 KO, SGLT2 KO and DKO mice (C57BL/6J-129 SvEv hybrid)
T2 sequence (Q8C3K6 1-665): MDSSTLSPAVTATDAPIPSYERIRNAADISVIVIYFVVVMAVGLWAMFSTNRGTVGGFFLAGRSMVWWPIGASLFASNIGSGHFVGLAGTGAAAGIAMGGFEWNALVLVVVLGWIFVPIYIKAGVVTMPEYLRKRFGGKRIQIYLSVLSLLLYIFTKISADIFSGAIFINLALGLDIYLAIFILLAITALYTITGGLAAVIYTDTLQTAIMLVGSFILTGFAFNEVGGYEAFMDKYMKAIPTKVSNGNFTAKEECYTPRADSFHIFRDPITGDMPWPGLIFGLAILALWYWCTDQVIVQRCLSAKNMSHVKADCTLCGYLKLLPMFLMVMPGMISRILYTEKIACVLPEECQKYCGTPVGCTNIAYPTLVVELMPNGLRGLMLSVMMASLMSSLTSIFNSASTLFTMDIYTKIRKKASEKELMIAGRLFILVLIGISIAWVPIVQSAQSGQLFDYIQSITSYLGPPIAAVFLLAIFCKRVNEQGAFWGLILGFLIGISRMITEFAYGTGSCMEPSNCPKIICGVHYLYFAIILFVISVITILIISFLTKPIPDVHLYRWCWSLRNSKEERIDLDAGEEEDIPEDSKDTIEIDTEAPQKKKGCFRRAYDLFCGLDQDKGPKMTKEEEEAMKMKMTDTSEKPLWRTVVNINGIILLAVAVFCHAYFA
Experimental: Mice were individually housed in Nalgene Metabolic Cages for Mice (product MTB-0311), and 24-h urine collections were made to determine 24-h UGE, as described previously (Powell et al. [2013a]). Some mice received a single dose of either LP-925219 or vehicle by oral gavage at 8 am immediately prior to initiating collection of 24-h urine samples; in addition, some mice received two doses of either vehicle or 60 mg/kg LP-925219 by oral gavage, with the first dose given at 8 am and the second dose given at 6 pm, nearly midway through the collection of the 24-h urine sample.
Figure 5 UGE values in mice treated with a single dose of LP-925219. After DKO, S2 KO, S1 KO, and WT littermate mice received, by a single oral gavage at 8 am, either vehicle (Veh) or LP-925219 at a dose of (A) 1 mg/kg; (B) 10 mg/kg; or (C) 60 mg/kg, the mice were placed in metabolic cages and their urine was collected over the next 24 h and analyzed for total glucose. N = 5–11 mice/group. UGE < DKO UGE: *P < 0.05, **P < 0.01, ***P < 0.001; LP-925219 UGE > Veh UGE for the same group, ^^^P < 0.001. UGE, urinary glucose excretion.
Figure 6 UGE values in mice treated with two doses of 60 mg/kg LP-925219. DKO, S2 KO, S1 KO, and WT littermate mice received, by oral gavage at 8 am and then again at 6 pm, either vehicle (Veh) or LP-925219 at a dose of 60 mg/kg. The mice were placed in metabolic cages after the first gavage and their urine was collected over the next 24 h and analyzed for total glucose. N = 6–11 mice/group. UGE < DKO UGE, ***P < 0.001; LP-925219 UGE > Veh UGE for the same group, ^^^P < 0.001. UGE, urinary glucose excretion.

COc1ccc(Cc2cc([C@@H]3O[C@H](SC)[C@@H](O)[C@H](O)[C@H]3O)ccc2Cl)cc1 [LP-925219]
IC50 [1]: 0.3 ± 0.2 nM
24-h UGE ([2]; single oral dose 60 mg/kg, maximal = vehicle-treated DKO): 80 ± 18 % of maximal
24-h UGE ([2]; single oral dose 1 or 10 mg/kg, vs vehicle): did not show a significant increase
24-h UGE ([2]; two oral 60 mg/kg doses (8 am, 6 pm)): 89 ± 16 % of maximal
